± gives the standard deviation of the reports.
Point of comparison: *CC(*)C(=O)OC(C)CCCCC (repeat unit) [Poly(2-heptyl acrylate) ], glass transition temperature -39 ± 1.4 °C. Against it:
- *c1nc(C(F)(F)F)nc(C(F)(OC(F)(F)C(F)(F)C(F)(F)C(F)(F)C(F)(F)C(F)(F)OC(*)(F)C(F)(F)F)C(F)(F)F)n1 (repeat unit) [Perfluoropolymer 1] — higher, -13.6 ± 0.7 °C
- *CC(*)c1ccccc1CC (repeat unit) [Poly(o-ethyl styrene) ] — higher, 102 ± 1.4 °C
- *CC(*)(C)C(=O)OCC(CC)CC (repeat unit) [Poly(2-ethylbutyl methacrylate) ] — higher, 10.4 ± 0.7 °C
- *Oc1ccc(Oc2ccc(Oc3ccc4c(c3)C(=O)N(CCCCCCN3C(=O)c5ccc(*)cc5C3=O)C4=O)cc2)cc1 (repeat unit) [Polyetherimide 1 ] — higher, 126.4 ± 2.1 °C
- *CC(*)c1ccc(CO)cc1 (repeat unit) [Poly(p-hydroxymethyl styrene) ] — higher, 139 ± 1.4 °C
- *CC(*)OC(=O)CCC (repeat unit) [Poly(vinyl butyrate) ] — higher, 2 ± 4.2 °C

Remark: another data set of the same source

Point of comparison: *Oc1cccc(Oc2ccc(Oc3ccc4c(c3)C(=O)N(c3ccc(Oc5cccc(Oc6ccc(N7C(=O)c8ccc(*)cc8C7=O)cc6)c5)cc3)C4=O)cc2)c1 (repeat unit), glass transition temperature 184.00 °C. Against it:
- *C(=O)c1ccc2c(c1)C(=O)N(c1ccc(C)c(N3C(=O)c4ccc(*)cc4C3=O)c1C)C2=O (repeat unit) — higher, 384.00 °C
- *c1ccc(Oc2ccc(C(C)(C)c3ccc(Oc4ccc(-n5c(=O)c6cc7c(=O)n(*)c(=O)c7cc6c5=O)cc4)cc3)cc2)cc1 (repeat unit) — higher, 283.00 °C
- *Sc1cccc2c1C(=O)N(c1cc(Cc3ccc(N4C(=O)c5cccc(*)c5C4=O)c(C)c3)ccc1C)C2=O (repeat unit) — higher, 274.00 °C
- *C(=O)c1cccc(Cc2ccc3c(c2)C(=O)N(c2cc(N4C(=O)c5ccc(*)cc5C4=O)cc(C(F)(F)F)c2)C3=O)c1 (repeat unit) — higher, 253.00 °C
- *Oc1cccc(Sc2ccc(Oc3cccc4c3C(=O)N(c3ccc(Oc5cccc(Oc6ccc(N7C(=O)c8cccc(*)c8C7=O)cc6)c5)cc3)C4=O)cc2)c1 (repeat unit) — higher, 230.00 °C
- *c1ccc2c(c1)C(=O)N(c1cc(N3C(=O)c4ccc(S(*)(=O)=O)cc4C3=O)cc(C(F)(F)F)c1)C2=O (repeat unit) — higher, 310.00 °C
- *c1ccc2c(c1)C(=O)N(c1ccc(-c3ccc(N4C(=O)c5ccc(C(*)(C(F)(F)F)C(F)(F)F)cc5C4=O)cc3C)c(C)c1)C2=O (repeat unit) — higher, 325.00 °C
- *Sc1cccc2c1C(=O)N(c1ccc(Oc3ccc(Oc4ccc(N5C(=O)c6cccc(*)c6C5=O)cc4)cc3)cc1)C2=O (repeat unit) — higher, 250.00 °C
- *c1cc(N2C(=O)c3ccc(-c4ccc5c(c4)C(=O)N(*)C5=O)cc3C2=O)ccc1OCC(F)(F)C(F)(F)C(F)(F)F (repeat unit) — higher, 300.00 °C
- *c1ccc(P(=O)(c2ccccc2)c2ccc(-n3c(=O)c4cc5c(=O)n(*)c(=O)c5cc4c3=O)cc2)cc1 (repeat unit) — higher, 425.00 °C

Remark: another data set of the same source

In the case of *CC(*)OCCC (repeat unit) [Poly(propyl vinyl ether)], the glass transition temperature is reported as -49 °C.

Remark: another data set of the same source

*CC(*)OC(=O)C=Cc1ccccc1 (repeat unit) [poly(vinyl cinnamate)] gave a glass transition temperature of 77 °C.

Remark: another data set of the same source

Point of comparison: *c1ccc(N(c2ccc(-c3ccc4c(c3)C(CCCCCCCC)(CCCCCCCC)c3cc(*)ccc3-4)cc2)c2ccc(C(C)CC)cc2)cc1 (repeat unit), glass transition temperature 140.00 °C. Against it:
- *c1ccc2c(c1)C(CCCCCCCCCCCC)(CCCCCCCCCCCC)c1cc(*)ccc1-2 (repeat unit) — lower, 16.00 °C
- *c1cc2c(OCC(CC)CCCC)c3sc(-c4sc(*)c5c(F)c(C(=O)OCC(CC)CCCC)sc45)cc3c(OCC(CC)CCCC)c2s1 (repeat unit) — lower, 40.00 °C
- *c1ccc(-c2ccc(OCCCCCCCC)c(-c3cc(*)ccc3OCCCCCCCC)c2)cc1 (repeat unit) — lower, 87.00 °C
- *C=Cc1cc(OC)c(C=Cc2cc(OC)c(*)cc2OC)cc1OCC(CC)CCCC (repeat unit) — lower, 113.00 °C
- *c1ccc(-c2sc(-c3c(F)c(F)c(-c4cc(CC(CCCCCCCC)CCCCCCCCCC)c(-c5ccc(*)s5)s4)c4nsnc34)cc2CC(CCCCCCCC)CCCCCCCCCC)s1 (repeat unit) — lower, 28.00 °C
- *c1cc(CCCCCCCCCCCCCC)c(-c2sc(-c3cc4sc(*)cc4s3)cc2CCCCCCCCCCCCCC)s1 (repeat unit) — lower, 5.00 °C
- *c1ccc2c(c1)C(CCCCCCCC)(CCCCCCCC)c1cc(-c3sc(-c4ccc(-c5cc(CCCCCC)c(*)s5)c5nsnc45)cc3CCCCCC)ccc1-2 (repeat unit) — lower, 79.00 °C
- *c1ccc(-c2ccc(-c3cc4c5c(c(*)cc6c5c3C(=O)N(CC(CCCCCCCC)CCCCCCCCCC)C6=O)C(=O)N(CC(CCCCCCCC)CCCCCCCCCC)C4=O)s2)s1 (repeat unit) — lower, 74.00 °C
- *c1ccc(-c2ccc(OCCCCCC)c(-c3cc(*)ccc3OCCCCCC)c2)cc1 (repeat unit) — lower, 117.00 °C
